# Results taken from patent US6818612B2, “Use of parvovirus capsid particles in the inhibition of cell proliferation and migration” (priority 1998, dated 2004).
# Assays:
# human fetal liver cells = experiment: Colony formation assay (Stem cell CFU kit, 11 day) of fetal liver cells; assay type: cell-based
# Source text: In a first set of experiments, it was discovered that B19 parvovirus capsids inhibit hematopoiesis and that these molecules could be used to reduce the overproduction of red blood cells, white blood cells, and blood platelets, as is experienced by patients suffering from hematological proliferative diseases, such as Polycytemia Vera. (See FIG. 1A). In a first set of experiments, fresh human fetal liver cells, umbilical cord blood cells, and bone marrow cells were contacted with recombinant B19 parvovirus capsids in a colony formation assay. The general features of a colony formation assay are depicted in FIG. 1B. The ability of the B19 parvovirus capsids to inhibit hematopoiesis was verified by the reduction of colony formation in the presence of the capsids, as compared to untreated control populations of cells. A more detailed description of these experiments is provided below.
# To obtain fetal liver tissue, human fetuses 6-12 weeks of gestational age were obtained from legal abortions; the patients had volunteered to donate fetal tissue. Gestational age was estimated according to specific anatomical markers and is given as menstruational age. Abortions were performed with vacuum aspirations. Fetal liver was dissected under sterile conditions, placed in a sterile tube containing RPMI1640 and disintegrated by passage through a vinyl mesh to form a single cell suspension. Nucleated cells were then washed three times, counted and diluted in culture medium.
# (§1) A commercial kit—the “Stem cell CFU kit” (GIBCO BRL, Life Technology Inc., NY, USA)—was used to perform the colony formation assays. The kit provides a semi-solid support that mimics the extracellular matrix produced by stromal cells. Other components included in the kit are: Iscove's modified Dulbecco's medium, modified fetal bovine serum, methylcellulose, 2-mercaptoethanol, conditioned medium and erythropoietin. The colonies that were formed in the assay were identified as BFU-E (burst forming unit-erythroid cells) with densely packed hemoglobonized cells, CFU-GM (colony forming units-granulocytes, macrophages) with arrangements of non-hemoglobinized cells, and CFU-GEMM (colony forming units-granulocytes, erythroid cells, macrophages, megakaryocytes) with hemoglobinized cells and small and large peripheral cells.
# (§2) Recombinant B19 parvovirus empty capsid particles (Kajigaya et al., Proc Natl Acad Sci USA, 88:4646 (1991)) were prepared in a recombinant baculovirus-insect cell (Spodofera frugiperda) expression system. (Kajigaya et al., Proc Natl Acad Sci USA, 88:4646 (1991)). The isolated or purified capsids were diluted in buffer (20 mM Tris, 0.5M NaCl, pH 8.5) and 30 μL of each dilution was added to approximately 25×10^3 cells (50×10^3 for postnatal cells) in 100 μL of culture medium and incubated for 1 hour at 4° C. The mixtures were then transferred to incubation dishes and culture medium was added to a final volume of 0.5 ml per well. The cells were then incubated for 11 days in a humidified atmosphere at 5% CO2, and were scored for BFU-E, CFU-GM and CFU-GEMM derived colony formation.
# [1] = test system: umbilical cord blood cells; experiment: Colony formation assay on cord blood cells; assay type: cell-based, human; conditions: for Colony Counts (% of medium control) BFU-E / Colony Counts (% of medium control) CFU-GEMM / Colony Counts (% of medium control) CFU-GM: Cord blood cells, 11 day culture
# Source text: as §1, §2
# (§3) The inhibitory effect of B19 parvovirus capsids on colony formation was also tested using fresh stem cells derived from cord blood and adult bone marrow samples. Colony formation assays in the presence of B19 parvovirus capsids were performed on cells obtained from umbilical cord blood and bone marrow using the protocol described above. Umbilical cord blood samples were obtained immediately after vaginal delivery from normal births. Samples of adult bone marrow were obtained from healthy allogeneic donors. Suspensions of fresh cells were heparinized and diluted in 0.9% NaCl and separated on Lymphoprep (Nycomed, Parma, Oslo, Norway) for gradient centrifugation at 2000 rpm for 20 min. Cells were carefully removed with a Pasteur pipette, washed three times in 0.9% NaCl, counted and diluted in culture medium in preparation for the colony formation assays.
# adult bone marrow cells = experiment: Colony formation assay on adult bone marrow cells; assay type: cell-based, human; conditions: for Colony Counts (% of medium control) BFU-E / Colony Counts (% of medium control) CFU-GEMM / Colony Counts (% of medium control) CFU-GM: Bone marrow cells, 11 day culture
# Source text: as §1, §2, §3
# [2] = test system: hematopoietic cells obtained from the bone marrow of monkeys; experiment: Colony formation assay on monkey bone marrow cells (Baboon); assay type: cell-based; conditions: FIG. 2, varying concentrations of capsid
# Procedure: (§4) Additionally, colony formation assays in the presence of B19 parvovirus […] were performed, as described above, using hematopoietic cells obtained from the bone marrow of monkeys (Baboons and Macaques).
# [3] = test system: hematopoietic cells obtained from the bone marrow of monkeys; experiment: Colony formation assay on monkey bone marrow cells (Macaque); assay type: cell-based; conditions: FIG. 2, varying concentrations of capsid
# Procedure: as §4
# [4] = capsid only, B19 parvovirus capsid 0.14 μg/ml, fetal liver cells, 11 day culture
# [5] = capsid only, B19 parvovirus capsid 7 μg/ml, fetal liver cells, 11 day culture
# [6] = fetal liver cells, 0.07 μg/ml VP1/2 capsid, FIG. 3
# [7] = fetal liver cells, B19 parvovirus capsid 0.007 μg/ml, 11 day culture
# [8] = fetal liver cells, B19 parvovirus capsid 0.7 μg/ml, 11 day culture
# [9] = fetal liver cells, B19 parvovirus capsid 70.0 μg/ml, pre-incubated prior to 11 day culture
# [10] = B19 parvovirus capsid 0.0007 μg/ml
# [11] = B19 parvovirus capsid 0.007 μg/ml
# [12] = B19 parvovirus capsid 0.07 μg/ml
# [13] = B19 parvovirus capsid 0.7 μg/ml
# [14] = B19 parvovirus capsid 7.0 μg/ml
# [15] = compared with fetal liver cells
substance,measurement,setting,value
"B19 parvovirus capsid: Recombinant empty B19 parvovirus capsid particles (95% VP2, 5% VP1) from a baculovirus-insect cell expression system",inhibition of fetal liver cell colony formation,"human fetal liver cells; B19 parvovirus capsids 0.14 μg/ml, in the absence of sera",significantly inhibited
same,Colony Counts (% of medium control) BFU-E,human fetal liver cells; [4],18% of medium control
same,Colony Counts (% of medium control) CFU-GEMM,human fetal liver cells; [4],63% of medium control
same,Colony Counts (% of medium control) CFU-GM,human fetal liver cells; [4],17% of medium control
same,Colony Counts (% of medium control) BFU-E,human fetal liver cells; [5],43% of medium control
same,Colony Counts (% of medium control) CFU-GEMM,human fetal liver cells; [5],21% of medium control
same,Colony Counts (% of medium control) CFU-GM,human fetal liver cells; [5],30% of medium control
same,"colony formation, % of the medium control",human fetal liver cells; [6],~60 % of the medium control
same,inhibition of colony formation,human fetal liver cells; [6],approximately 40%
same,inhibition of colony formation of hematopoietic cells,"human fetal liver cells; fetal liver cells, 70.0 μg/ml B19 parvovirus capsid",considerable inhibition
same,lowest concentration at which inhibition of colony formation of hematopoietic cells was seen,"human fetal liver cells; fetal liver cells, 11 day colony formation assay, 'as little as' / 'as low as'",0.007 µg/mL
same,Colony Counts (% of medium control) BFU-E,human fetal liver cells; [7],79% of medium control
same,Colony Counts (% of medium control) CFU-GEMM,human fetal liver cells; [7],94% of medium control
same,Colony Counts (% of medium control) CFU-GM,human fetal liver cells; [7],95% of medium control
same,Colony Counts (% of medium control) BFU-E,human fetal liver cells; [8],39% of medium control
same,Colony Counts (% of medium control) CFU-GEMM,human fetal liver cells; [8],63% of medium control
same,Colony Counts (% of medium control) CFU-GM,human fetal liver cells; [8],54% of medium control
same,Colony Counts (% of medium control) BFU-E,human fetal liver cells; [9],22% of medium control
same,Colony Counts (% of medium control) CFU-GEMM,human fetal liver cells; [9],31% of medium control
same,Colony Counts (% of medium control) CFU-GM,human fetal liver cells; [9],14% of medium control
same,Colony Counts (% of medium control) BFU-E,[1]; [10],84% of medium control
same,Colony Counts (% of medium control) CFU-GEMM,[1]; [10],93% of medium control
same,Colony Counts (% of medium control) CFU-GM,[1]; [10],79% of medium control
same,Colony Counts (% of medium control) BFU-E,[1]; [11],57% of medium control
same,Colony Counts (% of medium control) CFU-GEMM,[1]; [11],70% of medium control
same,Colony Counts (% of medium control) CFU-GM,[1]; [11],67% of medium control
same,Colony Counts (% of medium control) BFU-E,[1]; [12],49% of medium control
same,Colony Counts (% of medium control) CFU-GEMM,[1]; [12],50% of medium control
same,Colony Counts (% of medium control) CFU-GM,[1]; [12],72% of medium control
same,Colony Counts (% of medium control) BFU-E,[1]; [13],33% of medium control
same,Colony Counts (% of medium control) CFU-GEMM,[1]; [13],43% of medium control
same,Colony Counts (% of medium control) CFU-GM,[1]; [13],62% of medium control
same,Colony Counts (% of medium control) BFU-E,[1]; [14],10% of medium control
same,Colony Counts (% of medium control) CFU-GEMM,[1]; [14],43% of medium control
same,Colony Counts (% of medium control) CFU-GM,[1]; [14],54% of medium control
same,growth of cells obtained from human cord blood,"[1]; FIG. 1C, varying concentrations of capsid",decreased as the concentration of B19 parvovirus capsid increased
same,ability to inhibit hematopoietic cells obtained from cord blood,[1]; [15],comparable to that exhibited with fetal liver cells
same,Colony Counts (% of medium control) BFU-E,adult bone marrow cells; [10],86% of medium control
same,Colony Counts (% of medium control) CFU-GEMM,adult bone marrow cells; [10],78% of medium control
same,Colony Counts (% of medium control) CFU-GM,adult bone marrow cells; [10],77% of medium control
same,Colony Counts (% of medium control) BFU-E,adult bone marrow cells; [11],76% of medium control
same,Colony Counts (% of medium control) CFU-GEMM,adult bone marrow cells; [11],78% of medium control
same,Colony Counts (% of medium control) CFU-GM,adult bone marrow cells; [11],80% of medium control
same,Colony Counts (% of medium control) BFU-E,adult bone marrow cells; [12],63% of medium control
same,Colony Counts (% of medium control) CFU-GEMM,adult bone marrow cells; [12],44% of medium control
same,Colony Counts (% of medium control) CFU-GM,adult bone marrow cells; [12],41% of medium control
same,Colony Counts (% of medium control) BFU-E,adult bone marrow cells; [13],43% of medium control
same,Colony Counts (% of medium control) CFU-GEMM,adult bone marrow cells; [13],28% of medium control
same,Colony Counts (% of medium control) CFU-GM,adult bone marrow cells; [13],45% of medium control
same,Colony Counts (% of medium control) BFU-E,adult bone marrow cells; [14],18% of medium control
same,Colony Counts (% of medium control) CFU-GEMM,adult bone marrow cells; [14],6% of medium control
same,Colony Counts (% of medium control) CFU-GM,adult bone marrow cells; [14],36% of medium control
same,ability to inhibit hematopoietic cells obtained from bone marrow,adult bone marrow cells; [15],comparable to that exhibited with fetal liver cells
same,primate hematopoietic cell growth,[2],decreased in concordance with an increase in concentration of B19 parvovirus capsid
same,primate hematopoietic cell growth,[3],decreased in concordance with an increase in concentration of B19 parvovirus capsid
